Laboratory results as given in patent publication US9512138B2, “Compositions and methods for treating cancer” (The Regents of the University of California, priority 2012, dated 2016).
“Also recorded” adds a separate entry of the source. Counter-ions that a name gives are not always drawn.

Tests used:
[1] = cited from earlier work
[2] = in vivo; cited from earlier work
[3] = system: NF-κB/p65 phosphorylation; experiment: Western blot of phospho-NF-κB/p65 in H23 cells; format: cell-based, human; settings: for phosphorylation of the p65 subunit of NF-κB: 10 μM, 60 min (FIG. 7); for phosphorylation of NF-κB/p65: 10 µM, 60 min (FIG. 13)
Experimental: FIG. 7. […] After 60 min Western blot were performed using anti-phospho-NF-κB/p65 antibody (Cell Signaling Technology #3031). Membranes were stripped and re-probed with antibody against total NF-κB/p65 (CST #3037).
After 60 min, Western blots were done using anti-phospho-NFκB/p65 antibody (Cell Signaling).
Upon confirming that parthenolide analogues can inhibit NSCLC cell proliferation, induce cell death and enhance the cytotoxicity of chemotherapy, we began to investigate potential cellular mechanisms that may underlie this process. For example, we used Western Blot methods to determine phosphorylation of the p65 subunit of NF-κB. H23 cells were incubated in the presence of vehicle control or 10 μM concentration of the parthenolide derivatives (JD 201, 202, 203, 204) for 60 min. After treatment, cells were collected and homogenized in lysis buffer. Extracts were electrophoresed on 4-20% gradient SDS-PAGE gels and transferred to nitrocellulose membranes. Blots were probed with anti-phospho-NF-κB/p65 and NF-κB/p65 for a loading control.

[4] = system: A549, H23, H2122 and H1975 NSCLC cells; experiment: MTS cell viability/proliferation assay in NSCLC cell lines, 72 h; format: cell-based, human
Experimental: FIG. 5. Parthenolide analogues JD201-JD210 suppress human lung tumor cell proliferation in vitro. A549, H23, H2122 and H1975 NSCLC cells were treated with increasing concentrations of drugs (0.1-100 μM). After 72 h cell viability was assessed by MTS assay. Viable cells are expressed as percentage of vehicle control. P<0.01 (**), versus control group, P<0.05 (*), versus control group. Natural occurring parthenolide (PTL), parthenolide analogues JD201 (DMAPT)-JD210. Parthenolide analogues inhibit female (H1975, H2122) and male (H23, A549) NSCLC cell proliferation.
To determine the effect of parthenolide analogues in lung cancer cell proliferation we tested two male (A549, H23) and two female (H2122, H1975) lung cancer cell lines with increasing concentrations of parthenolide analogues (0.1, 1, 10 and 100 μM) for 72 hours.

MCF-7/HER2 cells = experiment: MCF-7/HER2 xenografts in nude mice; format: in vivo
Source text: (§1) Conversion of estrogen-sensitive to -resistant tumors after the start of antiestrogen therapy is a major problem in the clinic (65). This resistance may be due, in part, to enhanced growth factor signaling, a cellular response to antiestrogen treatment that eventually results in increased phosphorylation of ER and/or coactivators, such as AIB1(54). Convergence between growth factor and estrogen signaling may elicit a synergistic feed-forward circuit with more robust cell growth (FIG. 10). It is notable that tumors with HER-2 overexpression tend to respond poorly to antiestrogens (69-72). […] Such clinical data offer further evidence of the biologic interaction between HER-2 and ER. To evaluate the relation of HER-2 to clinical antiestrogen resistance, we used estrogen-responsive, MCF-7 cells with defined levels of ER that were transfected with HER-2 gene (MCF-7/HER-2). MCF-7 cells+HER-2 overexpression and parent MCF-7 cells were grown as xenografts in nude mice as before (28) (FIGS. 11A-11B).
(§2) FIGS. 11A-11B. Overexpression of HER2 gene in MCF7 cells elicits resistance to endocrine therapy in vivo; FIG. 11A: Antiestrogen sensitivity of MCF7 parent cells without HER2 overexpression (control) in vivo. MCF7 cells were inoculated SQ in ovari-ectomized, nude mice primed with estrogen. […] Tumor volumes were recorded. […]

[5] = system: MCF7 parent cells without HER2 overexpression; experiment: MCF-7 parent xenografts in nude mice; format: in vivo; settings: 28 d treatment
Source text: as §1, §2

[6] = system: MCF-7/TAMR breast cancer cells; experiment: Proliferation of tamoxifen-resistant MCF-7/TMR (TAM-R) cells; format: cell-based, human; settings: absence of parthenolide analogues
Experimental: MCF-7/CON cells are tamoxifen-sensitive, while MCF-7/HER2 and MCF-7/TMR cells are known to be tamoxifen-resistant (28,61,66,67). Except for TMR (64,68), cells were routinely cultured in RPMI 1640 media with 10% heat-inactivated FBS (28,64,66). For E2-free conditions, media were changed 48 h before studies to phenol-red free RPMI 1640 with 1% dextran-coated, charcoal-treated (DCC) FBS. TMR cells were derived by long-term continuous exposure of cells to 10^−7 M 4-hydroxy-tamoxifen by established methods (64,68) and were maintained with 10^−7 M 4-hydroxytamoxifen in medium. Levels of ERα and HER2 expression in these several cell lines were determined by use of Western blot methods.
Assays for Tumor Cell Proliferation. Breast tumor cells were be grown in RPMI 1640 media with 10% heat-inactivated FBS (except for TMR and TZR cells as noted above). For estrogen-free conditions, medium were changed 48 h before studies to phenol-red free RPMI 1640 with 1% dextran-coated, charcoal-treated (DCC) FBS, then treated with selected reagents. Cell counts and viability tests (Trypan blue) will be done every 24 hr for […]. After 48-72 hr, proliferation was assessed by cell counts.

A549 NSCLC cells = experiment: ALDH+/CD133+ cancer stem/progenitor cell subset by Aldefluor/CD133 FACS; format: cell-based, human; settings: 10 nM estradiol-17b, P<0.001
Experimental: FIG. 1. Isolation of cancer stem/progenitor cell subsets as determined by assay of specific biomarkers, ALDH and CD133, and effect of estrogen exposure. NSCLC cells (A549) were treated in vitro with control (CON), 10 nM estradiol-17b (E2), or E2 in the presence of […] fulvestrant. Thereafter, aldehyde dehydrogenase (ALDH) activity and CD133 expression were analyzed by established double labeling methods using an Aldefluor Assay Kit and CD133 antibody, respectively, followed by FACS sorting. The numbers of ALDH+/CD133+ lung tumor cells, representing a putative CSC subset, was expressed as a percent of total lung tumor cells for each treatment group. […] Experiments were done in triplicate.
Substantial evidence has accumulated to support the role of a small subset of self-renewing cells that sustain malignant growth. […] Based on these findings, we identified CD133+/ALDH+ tumor stem/progenitor cells from human lung cancer cells in vitro using an Aldefluor assay (to isolate ALDH+ cells) (5,7,8) in combination with labeled anti-CD133 antibodies (3,10) followed by fluorescence-activated cell sorting analysis (11). In brief, ALDH activity and CD133 expression were analyzed by established double labeling methods using the Aldefluor Assay Kit (Stem Cell Technologies) and CD133/1 antibody (Miltenyi) according to the manufacturer's instructions. […] Data were analyzed using FlowJo (Tree Star Inc.). […]

C/C1=C\CC[C@@]2(C)O[C@H]2[C@H]2OC(=O)[C@@H](CN(C)C)[C@@H]2CC1 [JD201, (1aR,7aS,8R,10aS,Z)-8-((Dimethylamino)methyl)-1a,5-dimethyl-2,3,6,7,7a,8,10a,10b-octa-hydrooxireno[2′,3′:9,10]cyclodeca[1,2-b]furan-9(1aH)-one, fumaric acid salt]
plasma concentrations ([1]; after oral administration): 40 µM | oral bioavaliability ([1]; oral): 70% | toxicology profile [2]: acceptable

C/C1=C/CC[C@@]2(C)OC2[C@H]2OC(=O)[C@@H](CNCc3ccccn3)[C@@H]2CC1.O=C(O)/C=C/C(=O)O (stereo partly drawn) [JD202, (1aR,7aS,8R,10aS,Z)-1a,5-Dimethyl-8-(((pyridin-2-ylmethyl)amino)methyl)-2,3,6,7,7a,8, 10a,10b-octahydrooxireno[2′,3′:9,10]cyclodeca[1,2-b]furan-9(1aH)-one, fumaric acid salt]
phosphorylation of the p65 subunit of NF-κB [3]: reduced phosphorylation of the p65 subunit of NF-κB; also recorded: inhibit phosphory-lation of NF-κB/p65 | phosphorylation of NF-κB/p65 [3]: inhibit phosphorylation of NF-κB/p65 | growth inhibition at 10 μM ([4]; 10 μM, A549, H23, H2122, H1975): Significant growth inhibition | growth inhibition at 100 μM ([4]; A549, H23, H2122, H1975): Significant growth inhibition | inhibitory activity relative to other analogues ([4]; FIG. 5, 0.1-100 μM): greater inhibitory activity than compounds 205 and 207

CON(C)C[C@@H]1C(=O)O[C@H]2[C@H]1CC/C(C)=C/CC[C@@]1(C)O[C@@H]21 [JD204, (1aR,7aS,8R,10aS,Z)-8-((Methoxy(methyl)amino)methyl)-1a,5-dimethyl-2,3,6,7,7a,8,10a, 10b-octahydrooxireno[2′,3′:9,10]cyclodeca[1,2-b]furan-9(1aH)-one, fumaric acid salt]
phosphorylation of the p65 subunit of NF-κB [3]: reduced phosphorylation of the p65 subunit of NF-κB; also recorded: inhibit phosphory-lation of NF-κB/p65 | phosphorylation of NF-κB/p65 [3]: inhibit phosphorylation of NF-κB/p65

C/C1=C\CC[C@@]2(C)O[C@H]2[C@H]2OC(=O)/C(=C\N3CCCCC3)[C@@H]2CC1 [JD205, (1aR,4Z,7aS,8Z,10aS)-1a,5-Dimethyl-8-(piperidin-1-ylmethylene)-2,3,6,7,7a,8,10a,10b-octahydrooxireno[2′,3′:9,10]cyclodeca[1,2-b]furan-9(1aH)-one]
phosphorylation of the p65 subunit of NF-κB [3]: inhibit phosphory-lation of NF-κB/p65 | phosphorylation of NF-κB/p65 [3]: inhibit phosphorylation of NF-κB/p65 | growth inhibition at 100 μM ([4]; A549, H23, H2122, H1975): Significant growth inhibition

C/C1=C\CC[C@@]2(C)O[C@H]2[C@H]2OC(=O)[C@@H](CN(C)O)[C@@H]2CC1 [JD207, (1aR,7aS,8R,10aS,Z)-8-((Hydroxy(methyl)amino)methyl)-1a,5-dimethyl-2,3,6,7,7a,8,10a, 10b-octahydrooxireno[2′,3′:9,10]cyclodeca[1,2-b]furan-9(1aH)-one, fumaric acid salt]
growth inhibition at 100 μM ([4]; A549, H23, H2122, H1975): Significant growth inhibition

C[C@]12CC[C@@H]3c4ccc(O)cc4C[C@@H](CCCCCCCCC[S+]([O-])CCCC(F)(F)C(F)(F)F)[C@H]3[C@@H]1CC[C@@H]2O (stereo partly drawn) [fulvestrant]
antiestrogen sensitivity of MCF-7/HER-2 xenografts (MCF-7/HER2 cells): partial sensitivity | growth of MCF-7 parent xenografts [5]: markedly suppressed

CC/C(=C(\c1ccccc1)c1ccc(OCCN(C)C)cc1)c1ccccc1 [tamoxifen]
response of MCF-7/TMR cells to tamoxifen alone [6]: resistant | antiestrogen sensitivity of MCF-7/HER-2 xenografts (MCF-7/HER2 cells): insensitive | growth of MCF-7 parent xenografts [5]: markedly suppressed

estradiol-17b
proportion/number of ALDH+/CD133+ cancer stem/progenitor cells (A549 NSCLC cells): increases the proportion of cancer stem/progenitor cell subsets | proportion/number of ALDH+/CD133+ cancer stem/progenitor cells (A549 NSCLC cells; listed as estrogen): modest increase in the numbers of CSC
